Fold change data for 27 compounds are collected here from PubChem BioAssay AID504481 (NMMLSC, 2011).

Activity calls are given as the source filed them.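 The calls were made as follows: active = fold change below 0.65 in a panel strain, matching the primary screen cutoff; inactive = the rest.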

Test systems include BY4741; YCL025C; YBR084C-A; YKL103C; YNL142W; YCR005C.
Common to all, as to experiment: GFP reporter expression in transducer deletion yeast, mechanism study for yeast TOR pathway modulator project, S. cerevisiae, transducer mutant strains, GFP-tagged proteins (AID 504481);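 also: 1 = DMSO wells as ratio of mean channel GFP fluorescence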
Holding throughout (conditions): S. cerevisiae transducer mutants, GFP-fusion expression, flow cytometry, 3 h
Background: In flow cytometry, cells or beads pass a laser one at a time.

On to `CSC1=NS(=O)(=O)c2c(C)nn(C)c2S1`, for which the fold change with BY4741 is 0.902 (inactive); in the test with YCL025C, 0.969 (inactive); in the test on YBR084C-A, 0.857 (inactive); with YKL103C it was 1.3 (inactive); in the test with YNL142W, 0.896 (inactive); with YCR005C, 0.841 (inactive).
Take `N/C(Cc1ccc(Cl)cc1)=N\OC(=O)c1cccc2ccccc12`: the fold change was 1.27 (inactive) in the test on BY4741; 0.919 (inactive) with YCL025C; 0.913 (inactive) in the test on YBR084C-A; 1.44 (inactive) in the test with YKL103C; 1.22 (inactive) with YNL142W; 2.47 in the test on YCR005C.
Turning to `O=S(=O)(CCN(CCS(=O)(=O)C(F)(F)F)CC1CCCO1)C(F)(F)F` (configuration not stated), the fold change is 0.957 (inactive) in the test on BY4741; 0.948 (inactive) in the test with YCL025C; 0.989 (inactive) in the test on YBR084C-A; 1.89 in the test on YKL103C; 0.965 (inactive) in the test with YNL142W; 1.23 (inactive) in the test with YCR005C.
`Cn1ncc(S(=O)(=O)Cc2ccccc2)c(Cl)c1=O`: the fold change was 1.33 (inactive) with BY4741; 1.13 (inactive) with YCL025C; 0.743 (inactive) in the test on YBR084C-A; 1.83 in the test with YKL103C; 1.47 (inactive) with YNL142W; 1.24 (inactive) with YCR005C.
As to `CC1=NN(c2ccccc2)C(=O)C1C(c1ccccc1[N+](=O)[O-])C(C#N)C#N` (configuration not stated), the fold change with BY4741 was 1.12 (inactive); in the test with YCL025C, 0.965 (inactive); with YBR084C-A, 1.09 (inactive); with YKL103C, 1.82; in the test with YNL142W, 1.1 (inactive); in the test with YCR005C, 1 (inactive).
Regarding `O=[N+]([O-])c1cc(O)c2ncccc2c1`, the fold change in the test on BY4741 was 0.838 (inactive); in the test on YCL025C, 0.835 (inactive); in the test with YBR084C-A it was 0.972 (inactive); in the test with YKL103C, 1.13 (inactive); in the test with YNL142W it was 0.761 (inactive); in the test on YCR005C, 0.721 (inactive).
Consider `COc1ccc(C(=O)NNC(=S)NC(=O)/C=C/c2cccs2)cc1`, for which the fold change in the test on BY4741 was 1.03 (inactive); in the test on YCL025C it was 1.38 (inactive); in the test on YBR084C-A it was 1.23 (inactive); in the test on YKL103C it was 1.51; in the test on YNL142W, 1.13 (inactive); in the test on YCR005C, 1.07 (inactive).
With `CC(C)(C)n1nc(-c2ccc(Cl)cc2)c2c(N)ncnc21`, the fold change was 0.757 (inactive) with BY4741; 0.899 (inactive) in the test with YCL025C; 0.489 in the test with YBR084C-A; 1.03 (inactive) with YKL103C; 0.924 (inactive) in the test with YNL142W; 0.358 (inactive) in the test with YCR005C.
Regarding `O=[N+]([O-])c1cc(Cl)c2cccnc2c1O`, the fold change was 0.935 (inactive) in the test with BY4741; 1.27 (inactive) in the test on YCL025C; 1.05 (inactive) in the test on YBR084C-A; 1.43 (inactive) in the test on YKL103C; 1.14 (inactive) in the test with YNL142W; 0.922 (inactive) in the test with YCR005C.
Turning to `O=[N+]([O-])c1cc(S(=O)(=O)C(F)(F)F)ccc1Sc1nc2ccccc2s1`, the fold change in the test with BY4741 is 1.03 (inactive); in the test on YCL025C, 1.09 (inactive); with YBR084C-A, 1.03 (inactive); in the test with YKL103C it was 2.03; in the test with YNL142W it was 1.02 (inactive); with YCR005C it was 1.09 (inactive).
With `CC(C)(C)C(=O)C(Cl)C(=O)Nc1ccccc1` (configuration not stated), the fold change was 1 (inactive) in the test on BY4741; 1.11 (inactive) in the test with YCL025C; 0.877 (inactive) in the test on YBR084C-A; 2.24 with YKL103C; 1.36 (inactive) in the test on YNL142W; 1.44 (inactive) with YCR005C.
Take `O=C(Oc1c(Cl)cc(Cl)c2cccnc12)c1ccco1`: the fold change with BY4741 is 1.03 (inactive); in the test with YCL025C, 0.784 (inactive); in the test on YBR084C-A, 1.14 (inactive); with YKL103C, 1.37 (inactive); in the test on YNL142W it was 0.881 (inactive); in the test on YCR005C it was 1.2 (inactive).
With `Cc1ccc(C2=NOC(=O)/C2=C\c2ccc(C)o2)cc1`, the fold change was 1.8 (inactive) in the test with BY4741; 0.812 (inactive) in the test with YCL025C; 0.943 (inactive) with YBR084C-A; 1.2 (inactive) in the test with YKL103C; 1.11 (inactive) with YNL142W; 1.25 (inactive) with YCR005C.
Consider `O=C(OCn1ncc(Br)c(Br)c1=O)c1ccc(F)cc1`, for which the fold change in the test on BY4741 is 0.946 (inactive); in the test with YCL025C, 0.996 (inactive); in the test with YBR084C-A, 1.02 (inactive); with YKL103C it was 1.76; in the test with YNL142W, 1.06 (inactive); with YCR005C, 1.68.
As to `CCc1ccc(OCC(=O)NNC(=S)NC(=O)C2CC2)c(Br)c1`, the fold change was 1.54 (inactive) in the test on BY4741; 1.03 (inactive) in the test on YCL025C; 1.09 (inactive) in the test on YBR084C-A; 2.4 in the test with YKL103C; 1.15 (inactive) in the test with YNL142W; 1.17 (inactive) in the test on YCR005C.
`COc1ccc(/C=C/C(=O)NC(=S)NNC(=O)c2cnccn2)cc1`: the fold change was 1.19 (inactive) in the test on BY4741; 1.01 (inactive) with YCL025C; 0.936 (inactive) in the test with YBR084C-A; 1.51 in the test on YKL103C; 1.27 (inactive) in the test with YNL142W; 1.05 (inactive) in the test with YCR005C.
For the compound `O=C1ON=C(c2ccccc2)/C1=C/c1ccco1`, the fold change is 1.32 (inactive) in the test with BY4741; 0.866 (inactive) with YCL025C; 1.02 (inactive) in the test with YBR084C-A; 1.37 (inactive) in the test with YKL103C; 1.09 (inactive) with YNL142W; 1.4 (inactive) with YCR005C.
Regarding `Cc1ccc(S(=O)(=O)c2ncccc2[N+](=O)[O-])cc1`, the fold change in the test on BY4741 was 1 (inactive); in the test on YCL025C it was 0.853 (inactive); with YBR084C-A, 0.924 (inactive); with YKL103C, 1.33 (inactive); in the test with YNL142W, 0.701 (inactive); in the test with YCR005C it was 0.87 (inactive).
For the compound `O=C(NC(=S)NNC(=O)c1cnccn1)c1ccc(F)cc1`, the fold change in the test with BY4741 is 1.1 (inactive); with YCL025C, 1.02 (inactive); in the test on YBR084C-A, 0.875 (inactive); in the test with YKL103C, 1.54; in the test with YNL142W it was 1.23 (inactive); in the test on YCR005C, 0.816 (inactive).
For the compound `CCCCC(=O)NNC(=S)NC(=O)c1ccc(C)cc1`, the fold change in the test on BY4741 was 1.66 (inactive); with YCL025C, 1.12 (inactive); in the test on YBR084C-A, 1.27 (inactive); in the test with YKL103C, 2.75; in the test with YNL142W, 1.25 (inactive); with YCR005C it was 1.02 (inactive).
For `O=C(Oc1c(Cl)cc(Cl)c2cccnc12)c1cccc([N+](=O)[O-])c1`, the fold change is 0.946 (inactive) in the test on BY4741; 1.16 (inactive) in the test with YCL025C; 1.18 (inactive) in the test with YBR084C-A; 1.56 in the test on YKL103C; 1.08 (inactive) in the test with YNL142W; 1.03 (inactive) with YCR005C.
Take `c1ccc(-c2cccc(-c3ccccn3)n2)nc1`: the fold change in the test on BY4741 is 0.815 (inactive); in the test on YCL025C it was 0.958 (inactive); in the test with YBR084C-A, 0.903 (inactive); in the test on YKL103C it was 1.41 (inactive); in the test on YNL142W it was 0.833 (inactive); in the test on YCR005C it was 0.73 (inactive).
Turning to `Clc1ccc(N=c2ssnc2Cl)cc1`, the fold change in the test on BY4741 was 1.08 (inactive); in the test on YCL025C, 0.846 (inactive); in the test with YBR084C-A, 0.99 (inactive); in the test with YKL103C it was 1.45 (inactive); in the test on YNL142W it was 0.957 (inactive); in the test on YCR005C, 0.981 (inactive).
`O=C(Oc1ccnc2cc(Cl)ccc12)N1CCCCCC1`: the fold change in the test on BY4741 is 0.878 (inactive); in the test with YCL025C, 1.78; with YBR084C-A, 1.09 (inactive); in the test on YKL103C, 0.97 (inactive); in the test on YNL142W it was 1.97; with YCR005C, 0.6 (inactive).
Take `O=C1ON=C(c2ccccc2)/C1=C\c1ccco1`: the fold change was 0.924 (inactive) with BY4741; 1 (inactive) with YCL025C; 0.921 (inactive) in the test on YBR084C-A; 1.95 in the test with YKL103C; 1.13 (inactive) with YNL142W; 1.28 (inactive) in the test on YCR005C.
In the case of `COc1ccc([N+](=O)[O-])c(S(=O)(=O)c2ccc(Cl)cc2)n1`, the fold change was 1.1 (inactive) in the test with BY4741; 1.31 (inactive) with YCL025C; 0.841 (inactive) in the test on YBR084C-A; 2.87 in the test with YKL103C; 1.28 (inactive) in the test with YNL142W; 0.893 (inactive) in the test on YCR005C.
For the compound `CCOC(=O)c1c(C)oc2c1c(C(c1cccnc1)N1CCOCC1)c(O)c1ccccc12` (configuration not stated), the fold change was 1.18 (inactive) in the test with BY4741; 0.907 (inactive) in the test with YCL025C; 0.759 (inactive) in the test on YBR084C-A; 1.36 (inactive) in the test with YKL103C; 1.26 (inactive) in the test with YNL142W; 1.27 (inactive) in the test with YCR005C.
